Measured values from ChEMBL document CHEMBL1201862, “PubChem BioAssay data set” (2004).
Calls of active or inactive are those of the source.

Key:
Trypsin = Trypsin (Sus scrofa, UniProt P00761); experiment: trypsin protease activity blockade – biochemical, quenched peptide fluorescence, cherry-pick, selectivity assay for Rce1 protease inhibitor project, dose response (AID 488789)
[1] = target: Induced myeloid leukemia cell differentiation protein Mcl-1 (Homo sapiens, UniProt Q07820); assay type: functional
Induced myeloid leukemia cell differentiation protein Mcl-1, sequence (Q07820 whole entry): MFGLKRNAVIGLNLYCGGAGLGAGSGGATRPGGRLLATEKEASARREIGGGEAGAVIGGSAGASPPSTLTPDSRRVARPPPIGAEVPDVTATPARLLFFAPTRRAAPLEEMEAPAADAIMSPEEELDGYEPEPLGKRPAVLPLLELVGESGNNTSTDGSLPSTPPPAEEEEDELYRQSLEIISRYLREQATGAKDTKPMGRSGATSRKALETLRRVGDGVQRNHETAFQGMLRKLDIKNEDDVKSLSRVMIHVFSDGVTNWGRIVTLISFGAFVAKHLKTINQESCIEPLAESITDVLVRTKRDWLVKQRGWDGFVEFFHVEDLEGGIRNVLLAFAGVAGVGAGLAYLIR

Caspase-6 = target: T1, Caspase-6 (Homo sapiens, UniProt P55212); experiment: inhibition of CASP6 peptide cleavage – biochemical, VEID-R110 fluorescence, cherry-pick, dose response (AID 720632)
T1 sequence (P55212 whole entry): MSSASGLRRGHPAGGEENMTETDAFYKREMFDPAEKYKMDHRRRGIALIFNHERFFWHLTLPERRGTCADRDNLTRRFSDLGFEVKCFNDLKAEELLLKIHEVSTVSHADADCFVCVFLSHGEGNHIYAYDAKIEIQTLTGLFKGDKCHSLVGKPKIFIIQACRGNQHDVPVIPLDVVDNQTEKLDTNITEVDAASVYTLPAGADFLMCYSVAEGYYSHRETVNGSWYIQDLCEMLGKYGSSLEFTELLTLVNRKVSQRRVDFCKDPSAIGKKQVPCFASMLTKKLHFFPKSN

[2] = target: T2, Short transient receptor potential channel 4 (Mus musculus, UniProt Q9QUQ5); experiment: calcium entry via TRPC4 opening agents – cell-based, HEK293 TRPC4/mu-opioid, Fluo-4 calcium, dose response (AID 434937); assay type: functional
T2 sequence (Q9QUQ5 whole entry): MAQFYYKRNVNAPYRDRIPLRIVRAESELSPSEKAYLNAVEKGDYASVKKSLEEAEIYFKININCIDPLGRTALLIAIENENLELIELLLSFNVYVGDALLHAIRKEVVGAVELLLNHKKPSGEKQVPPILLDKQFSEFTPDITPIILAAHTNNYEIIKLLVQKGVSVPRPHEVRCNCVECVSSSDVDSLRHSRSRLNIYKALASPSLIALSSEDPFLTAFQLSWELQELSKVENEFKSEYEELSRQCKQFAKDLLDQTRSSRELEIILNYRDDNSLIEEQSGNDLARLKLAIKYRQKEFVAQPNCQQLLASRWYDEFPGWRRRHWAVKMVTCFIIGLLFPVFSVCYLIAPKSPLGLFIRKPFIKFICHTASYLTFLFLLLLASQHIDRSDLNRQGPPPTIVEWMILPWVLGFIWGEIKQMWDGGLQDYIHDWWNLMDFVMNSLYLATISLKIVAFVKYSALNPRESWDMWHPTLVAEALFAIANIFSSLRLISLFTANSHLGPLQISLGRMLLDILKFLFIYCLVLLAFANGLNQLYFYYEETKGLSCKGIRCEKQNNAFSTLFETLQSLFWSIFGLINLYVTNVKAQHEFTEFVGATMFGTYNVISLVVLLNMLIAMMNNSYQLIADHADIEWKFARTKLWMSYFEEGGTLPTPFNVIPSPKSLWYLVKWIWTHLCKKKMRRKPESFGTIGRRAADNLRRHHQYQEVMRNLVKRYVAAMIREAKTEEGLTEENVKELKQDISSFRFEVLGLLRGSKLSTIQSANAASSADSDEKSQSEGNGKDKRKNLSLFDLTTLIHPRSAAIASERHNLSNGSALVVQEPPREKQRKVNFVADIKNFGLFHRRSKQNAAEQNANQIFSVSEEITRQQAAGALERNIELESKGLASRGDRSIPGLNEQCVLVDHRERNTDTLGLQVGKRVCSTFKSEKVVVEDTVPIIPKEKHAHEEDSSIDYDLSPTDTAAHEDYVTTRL

[3] = A cytotoxicity screen of small molecule inhibitors of the PhoP region in Salmonella typhi identified in the primary screen. [Related pubchem assays: 1850, 1864, 1985 ]; assay type: functional
[4] = NIH3T3 cell viability loss – ATP luminescence, mouse fibroblasts, counter-screen, dose response (AID 2010); assay type: functional, cell-based;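 further: cells exposed to compound for about 90 hours before reading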
[5] = Trypanosoma cruzi growth suppression in host cells – NIH3T3 host cells, beta-gal luminescence, confirmation (AID 2044); assay type: functional, cell-based;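 further: intracellular parasites grown in NIH/3T3 mouse fibroblasts as host cells; luminescent beta-galactosidase reporter signal from transgenic T. cruzi replicating inside host cells; inhibitors lower the luminescence signal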
[6] = target: Peroxisome proliferator-activated receptor gamma/Nuclear receptor coactivator 3 (Homo sapiens, UniProt P37231); assay type: functional;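 further: agonist potency for raising coactivator recruitment to the receptor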
[7] = target: Peroxisome proliferator-activated receptor gamma/Nuclear receptor coactivator 1 (Homo sapiens, UniProt P37231); assay type: functional;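 further: agonist potency as compounds enhance coactivator SRC-1 recruitment to PPARgamma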
Peroxisome proliferator-activated receptor gamma/Nuclear receptor coactivator 1, sequence (P37231 whole entry): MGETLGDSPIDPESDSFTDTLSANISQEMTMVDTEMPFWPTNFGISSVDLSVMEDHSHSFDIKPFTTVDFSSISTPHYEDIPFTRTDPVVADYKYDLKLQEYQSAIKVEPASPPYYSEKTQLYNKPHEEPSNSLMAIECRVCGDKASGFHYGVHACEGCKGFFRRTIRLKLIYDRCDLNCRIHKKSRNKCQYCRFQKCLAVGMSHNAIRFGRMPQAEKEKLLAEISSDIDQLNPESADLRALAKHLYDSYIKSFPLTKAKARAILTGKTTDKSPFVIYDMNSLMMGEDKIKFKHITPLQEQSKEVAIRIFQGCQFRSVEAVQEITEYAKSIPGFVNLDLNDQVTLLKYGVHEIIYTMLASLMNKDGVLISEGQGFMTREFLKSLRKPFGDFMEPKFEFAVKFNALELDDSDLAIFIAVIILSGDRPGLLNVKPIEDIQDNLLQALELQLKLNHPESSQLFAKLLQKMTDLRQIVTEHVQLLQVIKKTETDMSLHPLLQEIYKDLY
Peroxisome proliferator-activated receptor gamma/Nuclear receptor coactivator 1, sequence (Q15788 whole entry, further chain): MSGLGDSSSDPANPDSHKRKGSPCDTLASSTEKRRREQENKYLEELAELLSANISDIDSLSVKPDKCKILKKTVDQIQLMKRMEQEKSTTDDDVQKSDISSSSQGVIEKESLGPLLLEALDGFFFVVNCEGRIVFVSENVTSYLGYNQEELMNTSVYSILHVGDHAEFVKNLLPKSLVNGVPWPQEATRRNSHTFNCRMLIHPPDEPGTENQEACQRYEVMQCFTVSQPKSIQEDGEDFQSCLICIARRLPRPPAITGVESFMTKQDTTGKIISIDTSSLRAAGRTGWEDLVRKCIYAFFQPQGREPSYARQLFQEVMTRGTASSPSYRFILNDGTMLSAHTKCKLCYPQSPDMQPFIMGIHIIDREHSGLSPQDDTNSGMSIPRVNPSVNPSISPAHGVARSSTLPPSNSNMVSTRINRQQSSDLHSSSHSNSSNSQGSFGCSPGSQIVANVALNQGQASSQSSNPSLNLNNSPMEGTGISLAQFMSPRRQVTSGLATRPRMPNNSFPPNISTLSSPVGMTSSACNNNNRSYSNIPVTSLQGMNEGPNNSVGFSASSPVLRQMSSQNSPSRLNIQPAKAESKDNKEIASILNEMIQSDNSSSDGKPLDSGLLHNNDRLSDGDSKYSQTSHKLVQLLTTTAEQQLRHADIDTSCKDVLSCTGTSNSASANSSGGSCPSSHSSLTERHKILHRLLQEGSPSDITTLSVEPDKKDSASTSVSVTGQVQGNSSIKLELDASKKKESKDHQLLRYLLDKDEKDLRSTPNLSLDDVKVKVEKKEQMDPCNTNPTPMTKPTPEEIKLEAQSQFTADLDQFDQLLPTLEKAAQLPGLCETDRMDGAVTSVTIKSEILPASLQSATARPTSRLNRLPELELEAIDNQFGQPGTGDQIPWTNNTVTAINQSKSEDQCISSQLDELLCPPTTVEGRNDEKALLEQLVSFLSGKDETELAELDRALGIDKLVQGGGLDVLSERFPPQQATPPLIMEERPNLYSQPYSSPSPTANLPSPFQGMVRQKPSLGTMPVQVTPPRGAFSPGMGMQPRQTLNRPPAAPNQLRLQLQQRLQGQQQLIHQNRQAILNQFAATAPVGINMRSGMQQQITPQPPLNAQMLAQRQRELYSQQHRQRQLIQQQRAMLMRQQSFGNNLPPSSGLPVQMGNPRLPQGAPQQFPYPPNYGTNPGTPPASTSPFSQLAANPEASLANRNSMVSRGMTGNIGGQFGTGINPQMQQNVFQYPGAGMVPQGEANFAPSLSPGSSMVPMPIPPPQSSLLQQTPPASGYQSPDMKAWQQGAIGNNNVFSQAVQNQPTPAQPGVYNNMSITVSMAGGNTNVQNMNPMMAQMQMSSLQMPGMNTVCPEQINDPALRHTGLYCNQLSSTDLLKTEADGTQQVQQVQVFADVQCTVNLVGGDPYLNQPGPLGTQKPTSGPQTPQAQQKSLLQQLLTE

[8] = target: Peroxisome proliferator-activated receptor gamma/Nuclear receptor coactivator 2 (Homo sapiens, UniProt P37231); assay type: functional;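 further: agonist potency for raising coactivator recruitment to the receptor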
Peroxisome proliferator-activated receptor gamma/Nuclear receptor coactivator 2, sequence (P37231 whole entry): as the sequence (P37231 whole entry) above
Peroxisome proliferator-activated receptor gamma/Nuclear receptor coactivator 2, sequence (Q15596 whole entry, further chain): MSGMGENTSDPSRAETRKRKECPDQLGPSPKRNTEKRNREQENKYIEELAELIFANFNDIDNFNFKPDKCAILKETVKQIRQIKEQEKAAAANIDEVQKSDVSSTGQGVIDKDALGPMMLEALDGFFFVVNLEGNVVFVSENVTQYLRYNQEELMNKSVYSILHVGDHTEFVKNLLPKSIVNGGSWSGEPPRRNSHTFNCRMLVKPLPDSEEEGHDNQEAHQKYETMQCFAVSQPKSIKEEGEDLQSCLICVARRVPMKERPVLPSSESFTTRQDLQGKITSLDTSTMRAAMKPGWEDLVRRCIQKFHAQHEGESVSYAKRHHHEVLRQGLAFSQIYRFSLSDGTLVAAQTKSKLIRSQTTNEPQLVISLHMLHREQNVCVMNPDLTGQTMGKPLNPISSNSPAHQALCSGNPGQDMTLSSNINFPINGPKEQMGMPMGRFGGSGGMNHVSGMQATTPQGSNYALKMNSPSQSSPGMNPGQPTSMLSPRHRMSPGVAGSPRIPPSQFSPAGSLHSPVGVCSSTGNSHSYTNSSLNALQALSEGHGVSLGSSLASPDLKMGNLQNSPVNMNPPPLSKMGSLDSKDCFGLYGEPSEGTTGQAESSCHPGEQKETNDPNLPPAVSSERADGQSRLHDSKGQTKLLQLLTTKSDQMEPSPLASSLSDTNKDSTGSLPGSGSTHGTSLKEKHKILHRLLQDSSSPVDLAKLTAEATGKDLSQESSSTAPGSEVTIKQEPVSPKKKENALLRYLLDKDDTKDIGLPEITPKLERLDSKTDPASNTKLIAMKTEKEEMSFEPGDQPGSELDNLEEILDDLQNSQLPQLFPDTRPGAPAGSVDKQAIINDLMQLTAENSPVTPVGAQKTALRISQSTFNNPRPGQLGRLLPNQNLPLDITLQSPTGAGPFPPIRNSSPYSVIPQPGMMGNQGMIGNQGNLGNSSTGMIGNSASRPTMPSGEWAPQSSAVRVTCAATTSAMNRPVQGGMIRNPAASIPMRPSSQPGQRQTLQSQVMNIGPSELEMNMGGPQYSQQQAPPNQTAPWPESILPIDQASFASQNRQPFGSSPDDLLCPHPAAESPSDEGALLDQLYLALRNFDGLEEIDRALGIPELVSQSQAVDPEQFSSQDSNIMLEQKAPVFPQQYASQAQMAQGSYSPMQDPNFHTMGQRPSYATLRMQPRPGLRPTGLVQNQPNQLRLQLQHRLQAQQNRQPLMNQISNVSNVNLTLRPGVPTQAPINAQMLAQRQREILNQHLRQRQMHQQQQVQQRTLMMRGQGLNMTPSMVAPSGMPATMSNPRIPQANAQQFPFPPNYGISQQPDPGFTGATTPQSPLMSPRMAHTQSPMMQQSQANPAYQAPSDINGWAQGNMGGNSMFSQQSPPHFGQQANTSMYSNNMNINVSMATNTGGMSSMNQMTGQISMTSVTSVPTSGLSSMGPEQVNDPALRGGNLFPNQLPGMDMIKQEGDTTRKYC

[9] = THP-1 cell cytotoxicity, dose response, cytotoxicity control for non-replicating M. tuberculosis project (AID 489025); assay type: functional
cells = assay type: functional
[10] = Vero E6 cell cytotoxicity, dose response, cytotoxicity control for non-replicating M. tuberculosis project, secondary assay (AID 492998); assay type: functional, VeroE6; details: Vero C1008
[11] = target: T3, Sentrin-specific protease 8 (Homo sapiens, UniProt Q96LD8); assay type: functional
T3 sequence (Q96LD8 whole entry): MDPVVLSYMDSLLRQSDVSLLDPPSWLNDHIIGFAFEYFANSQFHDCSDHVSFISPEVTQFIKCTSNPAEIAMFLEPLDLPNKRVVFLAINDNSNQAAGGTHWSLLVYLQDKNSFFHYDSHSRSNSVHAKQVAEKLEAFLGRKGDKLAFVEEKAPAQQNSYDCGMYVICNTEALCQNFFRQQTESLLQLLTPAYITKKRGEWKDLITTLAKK

[12] = target: T3, Sentrin-specific protease 8; assay type: functional; remark: listed apart in the source
Cytochrome P450 3A4 = Cytochrome P450 3A4 (Homo sapiens, UniProt P08684);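 further: CYP3A4 tested as one member of a cytochrome P450 panel screen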
Cytochrome P450 2C9 = Cytochrome P450 2C9 (Homo sapiens, UniProt P11712)
[13] = target: T4, Microphthalmia-associated transcription factor (Homo sapiens, UniProt O75030); experiment: reducers of TRPM1 reporter luminescence, concentration series – cell-based, SK-MEL-5, cherry-picked, set 3, MITF inhibitor project, dose response (AID 493073); assay type: functional;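 further: SK-MEL-5 melanoma cells with luciferase driven by the MITF target TRPM1 promoter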
T4 sequence (O75030 whole entry): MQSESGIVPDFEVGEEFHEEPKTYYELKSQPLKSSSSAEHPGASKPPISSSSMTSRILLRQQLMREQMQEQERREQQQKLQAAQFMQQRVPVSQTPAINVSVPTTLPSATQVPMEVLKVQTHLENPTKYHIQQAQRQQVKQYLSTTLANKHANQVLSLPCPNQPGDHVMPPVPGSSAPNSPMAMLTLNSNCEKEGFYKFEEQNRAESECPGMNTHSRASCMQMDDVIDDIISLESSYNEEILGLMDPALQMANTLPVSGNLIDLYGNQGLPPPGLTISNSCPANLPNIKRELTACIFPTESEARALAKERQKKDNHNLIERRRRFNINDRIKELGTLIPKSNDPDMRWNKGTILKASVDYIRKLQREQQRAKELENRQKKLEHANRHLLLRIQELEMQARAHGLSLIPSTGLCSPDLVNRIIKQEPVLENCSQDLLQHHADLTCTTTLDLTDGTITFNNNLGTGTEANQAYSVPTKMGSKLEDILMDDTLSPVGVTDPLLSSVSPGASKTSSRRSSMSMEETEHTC

Paired box protein Pax-8 = Paired box protein Pax-8 (Homo sapiens, UniProt Q06710); experiment: PAX8 transcriptional activity inhibition in RMG-I – RMG-I cells, luciferase, cherry-pick, dose response (AID 687027); assay type: functional, cell-based;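 further: luciferase reporter driven by Pax8 target thyroperoxidase promoter measured by SteadyGlo luminescence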
Paired box protein Pax-8, sequence (Q06710 whole entry): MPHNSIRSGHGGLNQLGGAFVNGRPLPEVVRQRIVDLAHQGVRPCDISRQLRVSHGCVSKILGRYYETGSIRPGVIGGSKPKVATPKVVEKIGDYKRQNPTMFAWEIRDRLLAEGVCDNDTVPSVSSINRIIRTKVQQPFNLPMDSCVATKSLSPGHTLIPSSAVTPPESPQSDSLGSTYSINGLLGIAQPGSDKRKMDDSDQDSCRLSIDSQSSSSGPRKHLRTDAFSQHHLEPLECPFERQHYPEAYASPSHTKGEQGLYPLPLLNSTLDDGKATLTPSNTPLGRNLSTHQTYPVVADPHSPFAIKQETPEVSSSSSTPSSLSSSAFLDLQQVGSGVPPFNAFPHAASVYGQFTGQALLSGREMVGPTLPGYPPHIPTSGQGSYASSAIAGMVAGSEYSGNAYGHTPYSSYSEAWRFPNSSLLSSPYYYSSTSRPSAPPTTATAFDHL

[14] = target: T5, Ubiquitin-conjugating enzyme E2 N (Homo sapiens, UniProt P61088); assay type: functional;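 further: Dose-response confirmation in a TR-FRET assay detecting UBC13-driven polyubiquitin chain formation, inhibition measured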
T5 sequence (P61088 whole entry): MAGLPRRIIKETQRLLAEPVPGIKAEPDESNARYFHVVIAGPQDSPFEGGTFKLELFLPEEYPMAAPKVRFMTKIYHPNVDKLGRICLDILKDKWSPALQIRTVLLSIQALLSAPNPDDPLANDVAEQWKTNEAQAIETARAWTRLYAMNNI

[15] = Luminescence Cell-Based Dose Retest to Confirm Inhibitors of Cancer Stem Cells. [Related pubchem assays (depositor defined):AID2717, AID2721]; assay type: functional; details: Homo sapiens
[16] = HEK-293T viability loss after treatment – luminescence, T-cell screen hits, cytotoxicity control for TCR NF-kB inhibitor project, dose response (AID 489026); assay type: functional, cell-based;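 further: cells exposed to compound about 14 hours before the viability readout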
[17] = viability of PTEN-deleted HCT116 cells – cell-based, HCT116 PTEN knockout, dose response (AID 1047); assay type: functional;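 further: HCT116 colon tumor cells with PTEN knocked out; cells exposed to compound for 60 hours before readout; potency for loss of cell viability measured by luminescence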
INS1 = experiment: INS-1E survival protection against cytokine death – cell-based, luminescence, retest, dose response (AID 449756); assay type: functional; details: Rattus norvegicus;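 further: cell death triggered by IL-1 beta plus TNF-alpha plus IFN-gamma mixture; protective hits raise ATP signal compared with cytokine alone wells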
[18] = viability of HCT116 lacking mutant beta-catenin – cell-based, human colon tumor, dose response (AID 1045); assay type: functional;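 further: HCT116 colon tumor cells with beta catenin knocked out; cells exposed to compound for 60 hours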
[19] = growth inhibition of yeast DHODH-expressing 3D7 parasites – SYBR Green, dry powder samples, dose response (AID 1159570); assay type: functional, cell-based;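 further: parasite growth measured after 72 hours of compound exposure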
[20] = P. falciparum Dd2 growth inhibitors, dose response, SYBR Green, cherry-picked samples (AID 1159567); assay type: functional, cell-based
[21] = Dd2 malaria parasite growth inhibition potency – SYBR Green, dry powder samples, dose response (AID 1159566); assay type: functional, cell-based;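 further: potency for growth inhibition with lower SYBR green DNA signal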
[22] = growth inhibition of PfATP4-mutant resistant parasites – NITD609-resistant line, SYBR Green, dry powder, dose response (AID 1159571); assay type: functional, cell-based;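 further: parasites synchronized at ring stage by sorbitol before testing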

Trypsin, sequence (P00761 whole entry): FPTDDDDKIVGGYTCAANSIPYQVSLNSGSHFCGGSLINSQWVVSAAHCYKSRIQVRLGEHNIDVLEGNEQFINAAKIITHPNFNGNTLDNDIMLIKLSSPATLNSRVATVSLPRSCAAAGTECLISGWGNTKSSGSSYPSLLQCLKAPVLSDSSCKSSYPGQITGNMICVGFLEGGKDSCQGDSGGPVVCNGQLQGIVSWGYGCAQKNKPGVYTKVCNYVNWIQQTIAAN

SMILES: N=c1oc2cc(O)ccc2cc1C(=O)Nc1nc2ccccc2s1
- AC50 (Trypsin): 12.4 µM (active)
- IC50 [1]: 3.21 µM (active)

SMILES: O=C(O)C1Oc2cc3ccccc3cc2O1
- AC50 (Caspase-6): 8.44 µM (active)

SMILES: CCN(Cc1ccccc1)S(=O)(=O)c1ccc(C(=O)N(CCCN(C)C)c2nc3c(F)cccc3s2)cc1
- EC50 [2]: 2.11 µM (active)

SMILES: CN1CCC(OC(=O)c2ccc(Cl)cc2Cl)CC1
- EC50 [3]: > 50 µM (active)
- EC50 [4]: > 60 µM (not active)
- EC50 [5]: 0.127 µM (active)

SMILES: CC(=O)c1c(C)[nH]c(C(=O)OCC(=O)NCC(C)C)c1C
- EC50 [3]: > 50 µM (active)

SMILES: Cc1cccc(N2CCN(C(=O)C3CCN(c4nnc(-n5cccc5)s4)CC3)CC2C)c1 (stereo not drawn)
- EC50 [3]: > 50 µM (active)

SMILES: CCOC(=O)COc1ccc(/C=C2\NC(=S)N(CC)C2=O)cc1
- EC50 [6]: > 79.4 µM (not active)
- EC50 [7]: > 79.4 µM (not active)
- EC50 [8]: > 79.4 µM (not active)
- CC50 [9]: > 40 µM (active)
- IC50 (cells): 3.34 µM (active)

SMILES: O=S(=O)(c1ccccc1)c1nnn2c1nc(NC1CCN(Cc3ccccc3)CC1)c1cc(Cl)ccc12
- EC50 [2]: 6.68 µM (active)

SMILES: CCOc1cc(-c2nnc(NC(=O)c3ccco3)o2)cc(OCC)c1OCC
- CC50 [10]: > 20 µM (active)
- IC50 (cells): 5.12 µM (active)

SMILES: O=C(COC(=O)c1ccc([N+](=O)[O-])o1)NC1CCS(=O)(=O)C1 (stereo not drawn)
- IC50 [11]: 8.96 µM (active)
- IC50 [12]: 9.9 µM (active)
- AC50 (Caspase-6): 39.7 µM (active)

SMILES: O=C1Cc2ccccc2C(=O)N1Cc1cccc(Cl)c1
- IC50 [11]: 0.528 µM (active)
- IC50 [12]: > 100 µM (inactive)
- AC50 (Caspase-6): 13 µM (active)

SMILES: O=S(=O)(c1ccccc1)c1cnn2c(C(F)(F)F)cc(-c3ccc(F)cc3)nc12
- EC50 [6]: > 79.4 µM (not active)
- EC50 [7]: > 79.4 µM (not active)
- AC50 (Cytochrome P450 3A4): 3.16 µM (inconclusive)
- EC50 [8]: > 79.4 µM (not active)
- AC50 (Trypsin): 20.2 µM (active)
- AC50 (Cytochrome P450 2C9): inconclusive

SMILES: O=C(C1CCCN(Cc2ccccc2)C1)N1CCc2ccccc2C1 (stereo not drawn)
- EC50 [2]: 0.133 µM (active)

SMILES: O=C(Nc1ccc(S(=O)(=O)NC2=NCCCCC2)cc1)c1ccc([N+](=O)[O-])s1
- EC50 [4]: 8.46 µM (active)
- EC50 [5]: 0.201 µM (active)
- AC50 [13]: 5.11 µM (active)
- AC50 (Paired box protein Pax-8): 5.3 µM (active)

SMILES: CCCCNC(=O)CSc1nc2ccccc2c(=O)n1Cc1ccc2c(c1)OCO2
- EC50 [6]: > 79.4 µM (not active)
- EC50 [7]: > 79.4 µM (not active)
- EC50 [8]: > 79.4 µM (not active)

SMILES: FC(F)(F)c1cc(CCN2CCNC[C@@H]2Cc2ccccc2)cc(C(F)(F)F)c1
- IC50 [14]: > 20 µM (inactive)
- AC50 [13]: 12.3 µM (active)
- AC50 [15]: 13.3 µM (active)

SMILES: Cc1ccc(/C=N/NC(=O)C2COc3ccccc3O2)s1 (stereo not drawn)
- CC50 [10]: 8.33 µM (active)
- IC50 [16]: > 80 µM (inactive)
- CC50 [9]: 4.18 µM (active)
- IC50 (cells): 7.88 µM (active)

SMILES: Brc1ccc(/C=N/c2ccc(Nc3ccccc3)cc2)s1
- EC50 [6]: > 79.4 µM (not active)
- EC50 [7]: > 79.4 µM (not active)
- EC50 [8]: > 79.4 µM (not active)

SMILES: O=C(N/N=C/c1ccc([N+](=O)[O-])s1)C(O)c1ccccc1 (stereo not drawn)
- EC50 [4]: > 60 µM (inconclusive)
- EC50 [5]: 0.306 µM (active)
- EC50 [17]: 5.9 µM (active)
- AC50 [13]: 4.48 µM (active)
- AC50 (INS1): 7.84 µM (active)
- EC50 [18]: 5.56 µM (active)

SMILES: O=C(Nc1ccccc1F)N1CCCCN2[C@H](CO)[C@H](c3ccc(C#Cc4cccnc4)cc3)[C@@H]2C1
- AC50 [19]: 0.452 µM (active)
- AC50 [20]: 0.86 µM (active)
- AC50 [21]: 0.507 µM (active)
- AC50 [22]: 0.504 µM (active)

SMILES: CC[N+](C)(CC)CCC[n+]1c(-c2ccccc2)c2cc(N)ccc2c2ccc(N)cc21 [PROPIDIUM]
- EC50 [3]: > 50 µM (active)
